The source made the active and inactive calls. The rule behind the calls is not given here.
What was measured:
Format in all cases: functional, cell-based
HepG2 = assay: Antiproliferative activity against human HepG2 cells assessed as cell growth inhibition measured after 48 hrs by MTT assay; details: HepG2, 48 h
MGC-803 = assay: Antiproliferative activity against human MGC-803 cells assessed as cell growth inhibition measured after 48 hrs by MTT assay; details: MGC-803, 48 h
T-24 [1] = assay: Antiproliferative activity against human T24 cells assessed as cell growth inhibition measured after 48 hrs by MTT assay; details: T-24, 48 h
SK-OV-3 = assay: Antiproliferative activity against human SK-OV-3 cells assessed as cell growth inhibition measured after 48 hrs by MTT assay; details: SK-OV-3, 48 h
WI-38 = assay: Antiproliferative activity against human WI-38 cells assessed as cell growth inhibition measured after 48 hrs by MTT assay; details: WI-38, 48 h
T-24 [2] = assay: Induction of mitochondrial membrane potential dysfunction in human T24 cells assessed as mitochondrial fragment condensation at 0.5 to 1 uM by mito-tracker green dye based fluorescence microscopy; details: dose 0.5-1 µM

Compound	IC50 (HepG2) [µM]	IC50 (MGC-803) [µM]	IC50 (T-24 [1]) [µM]	IC50 (SK-OV-3) [µM]	IC50 (WI-38) [µM]	Activity (T-24 [2])
O=C1c2cc(OCc3ccccc3)ccc2-c2cccc3ccnc1c23	> 40	> 40	> 40	> 40	> 40	–
O=C1c2ccc(Cl)cc2-c2cccc3ccnc1c23	> 40	15.9	16.8	27.2	> 40	–
O=C1c2cc(Cl)ccc2-c2cccc3ccnc1c23	15.3	26.3	34.1	> 40	> 40	–
COc1ccc2c3c(nccc13)C(=O)c1cc(O)ccc1-2	34.1	> 40	12.3	32.9	> 40	–
O=C1c2cc(O)ccc2-c2cccc3ccnc1c23	> 40	21.5	28.9	29.4	> 40	–
COc1cc2c(cc1OC)-c1cccc3ccnc(c13)C2=O	35.9	10.9	22.3	> 40	38.2	–
COc1cc2c3c(nccc3c1OC)C(=O)c1cc(O)ccc1-2	36.9	30.9	26.2	38.4	> 40	–
COc1cc2ccnc3c2c(c1OC)-c1ccccc1C3=O [LYSICAMINE]	> 40	15.8	7.3	12.1	6.7	–
O=C1c2ccc(F)cc2-c2cccc3ccnc1c23	27.4	17.8	21.2	27.4	36.5	–
O=C1c2cc([N+](=O)[O-])ccc2-c2cccc3ccnc1c23	> 40	> 40	> 40	> 40	> 40	–
COc1cc2c3c(nccc3c1OC)C(=O)c1ccccc1-2	35	9.2	18.3	27.4	29.7	Active
Cc1ccc2c(c1)-c1cccc3ccnc(c13)C2=O	30.1	10.6	8.6	16.7	32.4	–
Cc1ccc2c(c1)C(=O)c1nccc3cccc-2c13	13.1	10	12.4	17	28.4	–
O=c1[nH]cc(F)c(=O)[nH]1 [FLUOROURACIL]	20.4	39.1	39.4	21.6	> 40	–
COc1ccc2c(c1)-c1cccc3ccnc(c13)C2=O	19.6	16.6	18.9	26.1	> 40	–
O=C1c2c(F)cccc2-c2cccc3ccnc1c23	30.3	16.2	15.2	22.3	> 40	Active
COc1ccc2c3c(nccc13)C(=O)c1ccccc1-2	12.8	7.3	6.5	10.4	20.4	–
O=C1c2cc3c(cc2-c2cccc4ccnc1c24)OCO3	> 40	20.8	14.2	38.1	> 40	–
COc1ccc2c(c1)C(=O)c1nccc3cccc-2c13	7.3	14.8	20.4	19.4	28.7	–
COc1ccc2c3c(nccc13)C(=O)c1cc(OCc3ccccc3)ccc1-2	25.8	16.7	19.1	18.5	38.6	–
COc1cc2c3c(nccc3c1OC)C(=O)c1cc(OCc3ccccc3)ccc1-2	> 40	15.8	7.3	22.1	35.1	–
